pIC50: −log10 of the molar value.
What was measured:
CDK5/p25 = molecular target: T1, CDK5/p25 (Homo sapiens, UniProt Q00535); test: Enzymatic assay for CDK5 (FRET based LANCE Ultra kinase assay); format: biochemical; settings: read-out: CDK5 enzymatic activity (IC50 range)
T1 construct: purchased Invitrogen PR8543B
Summary of the method: (§1)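 LANCE Ultra TR-FRET: ULight-MBP peptide (68 nM) with ATP at Km, […], 60 min at 23° C. EDTA plus Eu-anti-phospho-MBP added, another 60 min, then 665/615 nm emission read. Compounds tested as 8-dose 4-fold DMSO dilutions.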

H460 = test: Cellular H460 viability assay (CellTiter-Glo, 72 hours); format: cell-based; settings: Homo sapiens, NCI-H460
Summary of the method: (§2)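 72 h treatment, 37 °C, 5% CO2; DMSO ctrl, final <0.1%; CellTiter-Glo luminescence; n=2.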

HCT116 = test: Cellular HCT116 viability assay (CellTiter-Glo, 72 hours); format: cell-based; settings: Homo sapiens, HCT-116
Summary of the method: as §2

MV4-11 = test: Cellular MV4-11 viability assay (CellTiter-Glo, 72 hours); format: cell-based; settings: Homo sapiens
Summary of the method: as §2

CDK1/Cyclin B = molecular target: T2, CDK1/Cyclin B (Homo sapiens, UniProt P06493); test: Enzymatic assay for CDK1 (FRET based LANCE Ultra kinase assay); format: biochemical; settings: read-out: CDK1 enzymatic activity (IC50 range)
T2 construct: purchased Invitrogen PR4768C
T2 sequence (P06493 whole entry): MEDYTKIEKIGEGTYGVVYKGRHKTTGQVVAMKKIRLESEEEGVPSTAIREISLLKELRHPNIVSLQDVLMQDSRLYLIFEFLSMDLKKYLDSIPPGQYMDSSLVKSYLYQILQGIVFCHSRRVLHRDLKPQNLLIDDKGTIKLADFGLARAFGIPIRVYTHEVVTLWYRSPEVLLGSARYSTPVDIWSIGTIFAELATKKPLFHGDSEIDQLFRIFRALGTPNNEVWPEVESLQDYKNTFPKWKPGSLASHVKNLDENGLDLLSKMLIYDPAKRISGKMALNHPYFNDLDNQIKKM
T2 sequence (P14635 whole entry partner): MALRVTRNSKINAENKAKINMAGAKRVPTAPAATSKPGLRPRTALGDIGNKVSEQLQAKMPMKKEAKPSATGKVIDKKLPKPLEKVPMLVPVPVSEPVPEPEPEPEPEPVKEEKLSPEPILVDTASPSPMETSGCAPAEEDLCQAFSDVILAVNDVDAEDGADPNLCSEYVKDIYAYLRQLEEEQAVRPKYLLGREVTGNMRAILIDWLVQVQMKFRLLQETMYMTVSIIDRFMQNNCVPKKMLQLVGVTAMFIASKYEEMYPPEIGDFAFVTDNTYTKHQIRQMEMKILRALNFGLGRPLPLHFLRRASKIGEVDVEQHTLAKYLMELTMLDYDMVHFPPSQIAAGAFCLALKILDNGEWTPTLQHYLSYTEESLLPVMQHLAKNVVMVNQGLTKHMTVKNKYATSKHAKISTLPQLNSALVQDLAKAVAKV
Summary of the method: as §1

CDK2/Cyclin A = molecular target: T3, CDK2/Cyclin A (Homo sapiens, UniProt P24941); test: Enzymatic assay for CDK2 (FRET based LANCE Ultra kinase assay); format: biochemical; settings: read-out: CDK2 enzymatic activity (IC50 range)
T3 construct: purchased Invitrogen PV6290
Summary of the method: as §1

CDK7/Cyclin H/MNAT1 = molecular target: T4, CDK7/Cyclin H/MNAT1 (Homo sapiens, UniProt P50613); test: Enzymatic assay for CDK7 (FRET based LANCE Ultra kinase assay); format: biochemical; settings: for pIC50: read-out: CDK7 enzymatic activity (IC50 range)
T4 construct: purchased Invitrogen PR6749B
T4 sequence (P50613 whole entry): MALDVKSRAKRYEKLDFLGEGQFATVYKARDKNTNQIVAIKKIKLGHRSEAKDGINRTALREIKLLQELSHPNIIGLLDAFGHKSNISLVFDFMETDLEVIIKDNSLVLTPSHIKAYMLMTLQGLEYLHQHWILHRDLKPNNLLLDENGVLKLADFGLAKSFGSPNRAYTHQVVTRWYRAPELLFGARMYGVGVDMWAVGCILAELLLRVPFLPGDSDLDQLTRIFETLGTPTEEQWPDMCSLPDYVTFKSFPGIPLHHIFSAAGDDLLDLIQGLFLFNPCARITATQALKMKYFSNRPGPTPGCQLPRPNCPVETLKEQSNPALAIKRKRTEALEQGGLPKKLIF
T4 sequence (P51946 whole entry partner): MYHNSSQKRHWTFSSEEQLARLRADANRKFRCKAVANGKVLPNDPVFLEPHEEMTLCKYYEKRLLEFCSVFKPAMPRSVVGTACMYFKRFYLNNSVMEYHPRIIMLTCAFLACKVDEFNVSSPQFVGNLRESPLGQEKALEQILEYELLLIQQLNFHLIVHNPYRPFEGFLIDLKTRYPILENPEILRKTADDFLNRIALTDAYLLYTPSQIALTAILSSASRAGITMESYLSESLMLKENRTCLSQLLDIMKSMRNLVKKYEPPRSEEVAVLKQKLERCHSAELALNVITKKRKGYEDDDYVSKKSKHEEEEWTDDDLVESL
T4 sequence (P51948 whole entry partner): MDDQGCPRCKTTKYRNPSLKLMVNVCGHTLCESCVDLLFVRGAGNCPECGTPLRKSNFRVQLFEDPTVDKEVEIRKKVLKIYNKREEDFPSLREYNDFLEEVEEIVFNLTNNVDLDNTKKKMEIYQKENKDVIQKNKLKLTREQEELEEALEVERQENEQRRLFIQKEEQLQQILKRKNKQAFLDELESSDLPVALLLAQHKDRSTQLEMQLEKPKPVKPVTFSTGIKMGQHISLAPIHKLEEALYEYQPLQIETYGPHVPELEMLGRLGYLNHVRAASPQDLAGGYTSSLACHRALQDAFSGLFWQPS
Summary of the method: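 LANCE Ultra TR-FRET kinase assay using a ULight-labeled peptide substrate and a Eu-labeled anti-phospho antibody, with ATP at its Km. Purified CDK/cyclin complex was added to compound after brief centrifugation.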

T1 sequence (Q00535 whole entry): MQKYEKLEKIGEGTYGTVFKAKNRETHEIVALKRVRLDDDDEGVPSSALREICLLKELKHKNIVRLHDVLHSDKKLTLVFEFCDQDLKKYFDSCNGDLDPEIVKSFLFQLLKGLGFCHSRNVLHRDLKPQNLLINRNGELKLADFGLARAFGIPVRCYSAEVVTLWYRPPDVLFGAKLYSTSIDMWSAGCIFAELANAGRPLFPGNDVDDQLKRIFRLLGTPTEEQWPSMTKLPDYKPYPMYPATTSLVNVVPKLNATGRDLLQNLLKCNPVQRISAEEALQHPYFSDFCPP
T1 sequence (Q15078 99-307 partner limits assumed): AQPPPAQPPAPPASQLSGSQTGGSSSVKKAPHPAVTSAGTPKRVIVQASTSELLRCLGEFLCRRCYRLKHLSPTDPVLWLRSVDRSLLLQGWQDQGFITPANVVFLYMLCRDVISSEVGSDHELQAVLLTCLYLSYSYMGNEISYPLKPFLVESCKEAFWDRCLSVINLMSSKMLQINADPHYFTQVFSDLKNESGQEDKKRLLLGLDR

Row | Structure (SMILES) | pIC50 (CDK5/p25) | pIC50 (H460) | pIC50 (HCT116) | pIC50 (MV4-11) | pIC50 (CDK1/Cyclin B) | pIC50 (CDK2/Cyclin A) | CDK1/CDK7: Selectivity of CDK7 inhibition over CDK1 inhibition (CDK7/Cyclin H/MNAT1) | CDK2/CDK7: Selectivity of CDK7 inhibition over CDK2 inhibition (CDK7/Cyclin H/MNAT1) | CDK5/CDK7: Selectivity of CDK7 inhibition over CDK5 inhibition (CDK7/Cyclin H/MNAT1) | pIC50 (CDK7/Cyclin H/MNAT1)
1 | Cc1cccc(C)c1CNc1nc(N2CCC(N)CC2)nc2c(C(C)C)cnn12 [Compound 235] | 6.00 to 7.00 | 5.00 to 6.00 | 5.00 to 6.00 | 5.00 to 6.00 | < 6.00 | < 6.00 | A (A=greater than 200 fold) | B (B=less than 200 fold, but greater than 20 fold) | B (B=less than 200 fold, but greater than 20 fold) | > 7.00
2 | CC(C)c1cnn2c(NC(C)c3ccccc3-n3ccc(CO)n3)nc(N3CCC(N)CC3)nc12 (racemic) [Compound 220] | < 6.00 | > 6.00 | > 6.00 | > 6.00 | < 6.00 | < 6.00 | A (A=greater than 200 fold) | A (A=greater than 200 fold) | A (A=greater than 200 fold) | > 7.00
3 | CC(C)c1cnn2c(NCc3ccccc3-n3ccc(C(C)(C)O)n3)nc(N3CCC(O)(CN)CC3)nc12 [Compound 228] | 6.00 to 7.00 | > 6.00 | > 6.00 | > 6.00 | < 6.00 | < 6.00 | A (A=greater than 200 fold) | A (A=greater than 200 fold) | A (A=greater than 200 fold) | > 7.00
4 | CNC(=O)c1cc2cn(-c3ccccc3CNc3nc(N4CCC(N)CC4)nc4c(C(C)C)cnn34)nc2cc1F [Compound 157] | 6.00 to 7.00 | > 6.00 | > 6.00 | > 6.00 | < 6.00 | 6.00 to 7.00 | A (A=greater than 200 fold) | A (A=greater than 200 fold) | B (B=less than 200 fold, but greater than 20 fold) | > 7.00
5 | CNC(=O)c1cccc(-c2cnn(-c3ccccc3CNc3nc(N4CCC(N)CC4)nc4c(C(C)C)cnn34)c2)c1 [Compound 151] | 6.00 to 7.00 | > 6.00 | > 6.00 | > 6.00 | 6.00 to 7.00 | 6.00 to 7.00 | A (A=greater than 200 fold) | B (B=less than 200 fold, but greater than 20 fold) | B (B=less than 200 fold, but greater than 20 fold) | > 7.00
6 | CC(C)c1cnn2c(NCc3ccccc3-n3ccc(C(C)(C)O)n3)nc(N3CCC(N)CC3)nc12 [Compound 236] | 6.00 to 7.00 | > 6.00 | > 6.00 | > 6.00 | 6.00 to 7.00 | 6.00 to 7.00 | A (A=greater than 200 fold) | B (B=less than 200 fold, but greater than 20 fold) | B (B=less than 200 fold, but greater than 20 fold) | > 7.00
7 | CC(C)c1cnn2c(NCc3c(Cl)cccc3-n3ccc(CO)n3)nc(N3CCC(N)CC3)nc12 [Compound 207] | 6.00 to 7.00 | > 6.00 | > 6.00 | > 6.00 | < 6.00 | < 6.00 | A (A=greater than 200 fold) | A (A=greater than 200 fold) | B (B=less than 200 fold, but greater than 20 fold) | > 7.00
8 | CC[C@@H](N)COc1nc(NCc2ccccc2-c2ccc3ccccc3n2)n2ncc(C(C)C)c2n1 [Compound 237] | < 6.00 | 5.00 to 6.00 | 5.00 to 6.00 | 5.00 to 6.00 | < 6.00 | < 6.00 | A (A=greater than 200 fold) | A (A=greater than 200 fold) | A (A=greater than 200 fold) | > 7.00
9 | CC(C)c1cnn2c(NCc3c(Cl)cccc3-n3ccc(C(=O)N4CCOCC4)n3)nc(N3CCC(N)CC3)nc12 [Compound 200] | < 6.00 | > 6.00 | > 6.00 | > 6.00 | < 6.00 | < 6.00 | A (A=greater than 200 fold) | A (A=greater than 200 fold) | A (A=greater than 200 fold) | > 7.00
10 | CC(C)c1cnn2c(NCc3ccccc3-c3ccc4ccccc4n3)nc(NCC3CCNCC3O)nc12 (stereo not shown) [Compound 222] | 6.00 to 7.00 | > 6.00 | > 6.00 | > 6.00 | < 6.00 | 6.00 to 7.00 | A (A=greater than 200 fold) | A (A=greater than 200 fold) | A (A=greater than 200 fold) | > 7.00
11 | CC(C)c1cnn2c(NCc3ccccc3-c3ccc4ccccc4n3)cc(OCC3CCNCC3)nc12 [Compound 213] | < 6.00 | 5.00 to 6.00 | 5.00 to 6.00 | 5.00 to 6.00 | < 6.00 | < 6.00 | A (A=greater than 200 fold) | A (A=greater than 200 fold) | A (A=greater than 200 fold) | > 7.00
12 | CC(C)c1cnn2c(NCc3ccccc3-n3cc(C(=O)Nc4ccccc4)cn3)nc(N3CCC(N)CC3)nc12 [Compound 152] | > 7.00 | > 6.00 | > 6.00 | > 6.00 | < 6.00 | 6.00 to 7.00 | A (A=greater than 200 fold) | B (B=less than 200 fold, but greater than 20 fold) | B (B=less than 200 fold, but greater than 20 fold) | > 7.00
13 | CC(C)c1cnn2c(NCc3c(Cl)cccc3N3CCOCC3)nc(N3CCC(N)CC3)nc12 [Compound 206] | 6.00 to 7.00 | > 6.00 | > 6.00 | > 6.00 | < 6.00 | < 6.00 | A (A=greater than 200 fold) | A (A=greater than 200 fold) | B (B=less than 200 fold, but greater than 20 fold) | > 7.00

From US11945822B2, “Pyrazolo-triazine and/or pyrazolo-pxrimidine derivatives as selective inhibitor of cyclin dependent kinase” (QURIENT CO., LTD., priority 2018, dated 2024)
